Key:
[1] = target: T1, Full length DGKα (D21-10BG, SignalChem) (Homo sapiens, UniProt P23743); assay: Biochemical DGK IC50 assay (ADP-Glo, lipid micelle substrate), DGKα; conditions: 7.5 nM enzyme, 140 μM ATP, 80 μM DAG, 1 hour preincubation, 1 hour reaction, room temperature, read-out: IC50s for DGKα
T1 construct: Full length DGKα (D21-10BG, SignalChem); purchased SignalChem D21-10BG
Procedure: (§1) Enzymatic reactions of DGKζ, DGKα and DGKδ were performed using ADP-Glo assay with lipid micelle substrate. […] Full length DGKα (D21-10BG, SignalChem) and full length DGKδ (D23-10G, SignalChem) were purchased. Lipid micelle was prepared by dissolving DAG (Sigma, 317505-10MG) and PS (Sigma, P7769-100MG) with chloroform which was firtherly removed by rotary evaporation. The obtained residue was resuspended in buffer containing 25 mM HEPES pH 7.0, 0.5 mM EDTA and 160 mM Octyl β-D glucopyranoside by vigorous mixing and ultrasonic (IID, Scientz).
(§2) The inhibition activities testing for the compound disclosed herein were carried out at room temperature in assay buffer containing 50 mM HEPES, 10 mM MgCl2, 0.01% BSA, 0.1 mM Na3VO4, 0.005% Tween-20 and 0.01 mM CaCl2. Compounds in DMSO were dispensed into wells of a black 384 well plate (Corning 4514) using D300e digital dispenser (Tecan). The ranges of compounds final concentration were 1.55˜10000 nM or 23.3˜150000 nM. 3 μL 2× enzyme solution was added to wells. […] After 1 hour reaction, 5 μL ADP-Glo reagent (Promga V9101) was added and incubated for 40 minutes. 10 μL Kinase Detection reagent was added and incubated for 30 minutes. Luminescence was measured on a microplate reader (PHERAstar FSX, BMG labtech). The IC50s are calculated based on inhibition of enzyme activity in the presence of increasing concentrations of compounds.

[2] = target: T2, Full length DGKζ (in-house protein M1-V929) (Homo sapiens, UniProt Q13574); assay: Biochemical DGK IC50 assay (ADP-Glo, lipid micelle substrate), DGKζ; conditions: 0.5 nM enzyme, 140 μM ATP, 80 μM DAG, 1 hour preincubation, 1 hour reaction, room temperature, read-out: IC50s for DGKζ
T2 construct: His (N); TEV cleavage site (N); made in house; host or cells: Sf9 insect cells (baculovirus, Bac-to-Bac)
Procedure: as §1, §2
Human His-TEV-DGK-zeta-pFastBac1 and human baculovirus samples was generated using the Bac-to-Bac baculovirus expression system (Invitrogen) according to the manufacturer's protocol. The DNA used for expression of DGK-zeta, have SEQ ID Nos: 1. Baculovirus amplification was achieved using infected SF9 cells at 1:2000 virus/cells ratios, and grown for 96 hours at 27° C. post-transfected.
The expression scaled up for each protein was carried out in the […] from CORNING. 4 L of 3×10^6 cells/mL Sf9 cells (Expression System, Invitrogen) grown in SF900™ II SFM insect medium (Expression System) was infected with virus stock at 1:200 virus/cells ratio, and grown for 48 hours at 27° C. post-transfection. The infected cell culture was harvested by centrifugation at 6000 rpm for 15 min 4° C. in a SORVALL LYNX6000 centrifuge. The cell pellets were stored at −80° C.
Full length human DGKζ produced as described above, was purified from Sf9 baculovirus-infected insect cell paste. The cells were lysed using sonication method, and the lysates were clarified by centrifugation.

T1 sequence (P23743 whole entry): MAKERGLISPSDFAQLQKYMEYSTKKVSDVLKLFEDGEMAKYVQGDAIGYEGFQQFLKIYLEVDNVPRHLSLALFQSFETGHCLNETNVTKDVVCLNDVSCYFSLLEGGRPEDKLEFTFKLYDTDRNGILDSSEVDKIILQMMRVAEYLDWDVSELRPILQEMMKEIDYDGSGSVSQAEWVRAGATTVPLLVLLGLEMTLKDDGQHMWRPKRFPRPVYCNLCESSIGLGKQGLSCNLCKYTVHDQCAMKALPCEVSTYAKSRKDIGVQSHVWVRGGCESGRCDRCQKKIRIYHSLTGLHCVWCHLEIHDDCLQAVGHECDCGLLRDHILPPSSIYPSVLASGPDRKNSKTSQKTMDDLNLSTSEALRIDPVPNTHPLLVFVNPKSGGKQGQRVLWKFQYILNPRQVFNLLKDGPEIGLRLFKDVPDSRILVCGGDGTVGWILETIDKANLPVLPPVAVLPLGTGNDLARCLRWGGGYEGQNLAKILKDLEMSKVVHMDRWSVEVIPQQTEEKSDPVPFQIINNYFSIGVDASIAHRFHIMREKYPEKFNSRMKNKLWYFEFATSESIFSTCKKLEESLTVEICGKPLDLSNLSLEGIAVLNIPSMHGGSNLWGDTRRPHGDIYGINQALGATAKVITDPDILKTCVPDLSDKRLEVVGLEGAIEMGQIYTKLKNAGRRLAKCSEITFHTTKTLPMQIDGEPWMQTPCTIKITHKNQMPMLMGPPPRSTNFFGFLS
T2 sequence (Q13574 1-929 isoform Q13574-4): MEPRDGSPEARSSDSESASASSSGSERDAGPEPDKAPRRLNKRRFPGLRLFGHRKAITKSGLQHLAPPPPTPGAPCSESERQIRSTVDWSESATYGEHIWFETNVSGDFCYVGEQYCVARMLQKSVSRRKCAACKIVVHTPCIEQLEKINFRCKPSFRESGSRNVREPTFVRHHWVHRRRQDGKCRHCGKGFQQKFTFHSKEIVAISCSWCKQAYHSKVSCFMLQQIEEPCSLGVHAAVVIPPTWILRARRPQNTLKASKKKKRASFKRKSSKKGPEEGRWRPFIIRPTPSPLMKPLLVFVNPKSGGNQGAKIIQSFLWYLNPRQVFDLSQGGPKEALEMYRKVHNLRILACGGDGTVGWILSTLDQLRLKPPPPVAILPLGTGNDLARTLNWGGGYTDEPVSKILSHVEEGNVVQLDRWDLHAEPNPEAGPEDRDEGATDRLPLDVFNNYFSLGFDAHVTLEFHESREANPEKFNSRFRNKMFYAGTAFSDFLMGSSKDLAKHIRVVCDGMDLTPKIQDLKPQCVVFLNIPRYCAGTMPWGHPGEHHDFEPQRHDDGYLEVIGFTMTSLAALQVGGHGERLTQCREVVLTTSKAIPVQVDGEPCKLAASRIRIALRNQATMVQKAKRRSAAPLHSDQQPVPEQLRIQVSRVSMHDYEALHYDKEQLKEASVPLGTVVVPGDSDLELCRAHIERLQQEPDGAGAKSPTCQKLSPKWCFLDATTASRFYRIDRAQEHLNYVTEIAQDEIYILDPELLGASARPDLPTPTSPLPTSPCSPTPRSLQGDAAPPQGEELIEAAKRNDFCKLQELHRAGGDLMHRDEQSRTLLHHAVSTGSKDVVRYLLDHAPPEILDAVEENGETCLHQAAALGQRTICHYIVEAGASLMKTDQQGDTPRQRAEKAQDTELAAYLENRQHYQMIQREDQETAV

## CC[C@@H]1CN(c2cc(=O)n(C)n3cc(C=NOC)nc23)[C@@H](C)CN1C(C)c1ccc2nccnc2c1 (single isomer, unassigned) [Compound A9b]
[1]
  IC50: 74 nM
[2]
  IC50: 313 nM

## CC[C@H]1CN(C(CCOC)c2ccc3nc(C)sc3c2)[C@H](CC)CN1c1cc(=O)n(C)n2cc(CC#N)nc12 (single isomer, unassigned) [Compound A102a]
[1]
  IC50: 378 nM
[2]
  IC50: 46 nM

## CCC(c1ccc(C2CC2)nc1)N1C[C@H](CC)N(c2cc(=O)n(C)n3cc(CC#N)nc23)C[C@H]1CC (single isomer, unassigned) [Compound A89a]
[1]
  IC50: 171 nM
[2]
  IC50: 73 nM

## CC[C@H]1CN(C(C)c2ccc3ncsc3c2)[C@H](CC)CN1c1cc(=O)n(C)n2cc(CC#N)nc12 (single isomer, unassigned) [Compound A53a]
[1]
  IC50: 11 nM
[2]
  IC50: 4 nM

## CC[C@H]1CN(C(C)c2ccc3c(c2)OCO3)[C@H](CC)CN1c1cc(=O)n(C)n2cc(CC#N)nc12 (stereo partly drawn) [Compound A71, 2-(8-((2S,5R)-4-(1-(benzo[d][1,3]dioxol-5-yl)ethyl)-2,5-diethylpiperazin-1-yl)-5-methyl-6-oxo-5,6-dihydroimidazo[1,2-b]pyridazin-2-yl)acetonitrile]
[1]
  IC50: 66 nM
[2]
  IC50: 61 nM

## CC[C@H]1CN(C(C)c2ccc3ncsc3c2)[C@H](CC)CN1c1cc(=O)n(C)n2cc(CC#N)nc12 (single isomer, unassigned) [Compound A53b]
[1]
  IC50: 235 nM
[2]
  IC50: 215 nM

## CC[C@H]1CN(C(C)c2ccc(C3CC3)nc2)[C@H](CC)CN1c1c(F)c(=O)n(C)n2cc(CC#N)nc12 (single isomer, unassigned) [Compound A73a]
[1]
  IC50: 177 nM
[2]
  IC50: 77 nM

## CC[C@H]1CN(C(C)c2cc3scnc3cc2F)[C@H](CC)CN1c1cc(=O)n(C)n2cc(CC#N)nc12 (single isomer, unassigned) [Compound A59a]
[1]
  IC50: 54 nM
[2]
  IC50: 26 nM

## CC[C@H]1CN(C(C)c2ccc(C3CC3(F)F)nc2)[C@H](CC)CN1c1cc(=O)n(C)n2cc(CC#N)nc12 (single isomer, unassigned) [Compound A70a]
[1]
  IC50: 102 nM
[2]
  IC50: 244 nM

## CC[C@H]1CN(C(C)c2ccc(C3CC3)nc2)[C@H](CC)CN1c1c(C#N)c(=O)n(C)n2cc(CC#N)nc12 (single isomer, unassigned) [Compound A75b]
[1]
  IC50: 1300 nM
[2]
  IC50: 1050 nM

## CC[C@H]1CN(C(C)c2ccc3scnc3c2)[C@H](CC)CN1c1cc(=O)n(C)n2cc(CC#N)nc12 (stereo partly drawn) [Compound A65, 2-(8-((2S,5R)-4-(1-(benzo[d]thiazol-5-yl)ethyl)-2,5-diethylpiperazin-1-yl)-5-methyl-6-oxo-5,6-dihydroimidazo[1,2-b]pyridazin-2-yl)acetonitrile]
[1]
  IC50: 36 nM
[2]
  IC50: 18 nM

## CC#CCc1cn2c(n1)c(N1C[C@@H](CC)N(C(C)c3ccc4nc(C)sc4c3F)C[C@@H]1CC)cc(=O)n2C (single isomer, unassigned) [Compound A116a]
[1]
  IC50: 118 nM
[2]
  IC50: 132 nM

## CC[C@@H]1CN(c2cc(=O)n(C)n3cc(COC)nc23)[C@@H](C)CN1C(C)c1ccc(C(F)(F)F)cc1F (single isomer, unassigned) [Compound A16a]
[1]
  IC50: 4650 nM
[2]
  IC50: 1230 nM

## CCc1nc2ccc(C(C)N3C[C@H](C)N(c4cc(=O)n(C)n5cc(CC#N)nc45)C[C@H]3CC)cc2s1 (single isomer, unassigned) [Compound A101b]
[1]
  IC50: 2360 nM
[2]
  IC50: 1110 nM

## CC[C@@H]1CN(c2cc(=O)n(C)n3cc(CC#N)nc23)[C@@H](COC)CN1C(C)c1ccc2nc(C)sc2n1 (single isomer, unassigned) [Compound A108b]
[1]
  IC50: 510 nM
[2]
  IC50: 182 nM

## CCC(c1ccc(C(F)(F)F)cc1)N1C[C@H](CC)N(c2cc(=O)n(C)n3cc(CC#N)nc23)C[C@H]1CC (single isomer, unassigned) [Compound A77a]
[1]
  IC50: 102 nM
[2]
  IC50: 255 nM

## CC[C@H]1CN(C(C)c2ccc3nc(C)sc3n2)[C@H](CC)CN1c1c(F)c(=O)n(C)n2cc(CC#N)nc12 (single isomer, unassigned) [Compound A82a]
[1]
  IC50: 26 nM
[2]
  IC50: 15 nM

## CCc1nc2ccc(C(C)N3C[C@H](C)N(c4cc(=O)n(C)n5cc(CC#N)nc45)C[C@H]3CC)cc2s1 (single isomer, unassigned) [Compound A101a]
[1]
  IC50: 851 nM
[2]
  IC50: 29 nM

## CCC(c1ccc(C2CC2)nc1)N1C[C@H](CC)N(c2cc(=O)n(C)n3cc(CC#N)nc23)C[C@H]1CC (single isomer, unassigned) [Compound A89b]
[1]
  IC50: 1520 nM
[2]
  IC50: 1010 nM

## CC[C@H]1CN(C(C)c2ccc3nccnc3c2)[C@H](CC)CN1c1cc(=O)n(C)n2cc(CC#N)nc12 (single isomer, unassigned) [Compound A14a]
[1]
  IC50: 217 nM
[2]
  IC50: 6 nM

## CC[C@H]1CN(C(C)c2ccc3scnc3c2F)[C@H](CC)CN1c1cc(=O)n(C)n2cc(CC#N)nc12 (single isomer, unassigned) [Compound A66a]
[1]
  IC50: 105 nM
[2]
  IC50: 22 nM

## CC#CCc1cn2c(n1)c(N1C[C@@H](CC)N(C(C)c3ccc4ncsc4c3F)C[C@@H]1CC)cc(=O)n2C (single isomer, unassigned) [Compound A117b]
[1]
  IC50: 535 nM
[2]
  IC50: 2000 nM

## CC(c1ccc2c(c1)OCCO2)N1C[C@H](C)N(c2cc(=O)n(C)n3cc(CC#N)nc23)C[C@H]1C (stereo partly drawn) [Compound A24, 2-(8-((2S,5R)-4-(1-(2,3-dihydrobenzo[b][1,4]dioxin-6-yl)ethyl)-2,5-dimethylpiperazin-1-yl)-5-methyl-6-oxo-5,6-dihydroimidazo[1,2-b]pyridazin-2-yl)acetonitrile]
[1]
  IC50: 2870 nM
[2]
  IC50: 230 nM

## CC[C@H]1CN(C(C)c2ccc(C(C)(F)F)nc2)[C@H](CC)CN1c1cc(=O)n(C)n2cc(CC#N)nc12 (single isomer, unassigned) [Compound A90a]
[1]
  IC50: 121 nM
[2]
  IC50: 25 nM

## CC[C@H]1CN(C(C)c2ccc3nc(C)sc3c2)[C@H](CC)CN1c1cc(=O)n(C)n2cc(C=NOC)nc12 (single isomer, unassigned) [Compound A123bc]
[1]
  IC50: 131 nM
[2]
  IC50: 2390 nM

## CC[C@H]1CN(C(C)c2ccc(C(C)C)nc2)[C@H](CC)CN1c1cc(=O)n(C)n2cc(CC#N)nc12 (single isomer, unassigned) [Compound A38b]
[1]
  IC50: 423 nM
[2]
  IC50: 475 nM

## CC(c1ccc2nccnc2c1)N1C[C@H](C)N(c2cc(=O)n(C)n3cc(CC#N)nc23)C[C@H]1C (mixture of isomers) [Compound A1, 2-(8-((2S,5R)-2,5-dimethyl-4-(1-(quinoxalin-6-yl)ethyl)piperazin-1-yl)-5-methyl-6-oxo-5,6-dihydroimidazo[1,2-b]pyridazin-2-yl)acetonitrile]
[1]
  IC50: 2000 nM
[2]
  IC50: 78 nM

## CC[C@H]1CN(C(C)c2ccc3nc(C)sc3c2)[C@H](CC)CN1c1c(C#N)c(=O)n(C)n2cc(CC#N)nc12 (stereo partly drawn) [Compound A111, 2-(cyanomethyl)-8-((2S,5R)-2,5-diethyl-4-(1-(2-methylbenzo[d]thiazol-6-yl)ethyl)piperazin-1-yl)-5-methyl-6-oxo-5,6-dihydroimidazo[1,2-b]pyridazine-7-carbonitrile]
[1]
  IC50: 575 nM
[2]
  IC50: 132 nM

## [2H]C([2H])([2H])c1nc2ccc(C(C)N3C[C@H](CC)N(c4cc(=O)n(C)n5cc(CC#N)nc45)C[C@H]3CC)cc2s1 (single isomer, unassigned) [Compound A96a]
[1]
  IC50: 54 nM
[2]
  IC50: 33 nM

## CC[C@@H]1CN(c2cc(=O)n(C)n3cc(C=NOC)nc23)[C@@H](C)CN1C(C)c1ccc2nccnc2c1 (single isomer, unassigned) [Compound A9d]
[1]
  IC50: 211 nM
[2]
  IC50: > 10000 nM

## CC[C@@H]1CN(c2cc(=O)n(C)n3cc(CC#N)nc23)[C@@H](CC)CN1Cc1ccc(OC(F)(F)F)cc1 [Compound A36, 2-(8-((2S,5R)-2,5-diethyl-4-(4-(trifluoromethoxy)benzyl)piperazin-1-yl)-5-methyl-6-oxo-5,6-dihydroimidazo[1,2-b]pyridazin-2-yl)acetonitrile]
[1]
  IC50: 14 nM
[2]
  IC50: 241 nM

— patent US20240327417A1, “HETEROCYCLIC COMPOUNDS” (BeiGene Switzerland GmbH, priority 2021, published 2024)
